Test results published in ChEMBL document CHEMBL5321210, “N-adamantyl-anthranil amide derivatives: New selective ligands for the cannabinoid receptor subtype 2 (CB2R)” (Eur J Med Chem, 2023).
Active and inactive are the calls of the source. The calls are words filed in the database; no cut-off is given here.

Columns and labels:
[1] = tested on: THP-1; test: Antiinflammatory activity in human THP-1 monocytes assessed as decrease in TNF-alpha production at 10 uM incubated for 24 hrs by ELISA coupled qRT-PCR analysis relative to control; type: functional; parameters: scale not given: the % may be the effect or the level left
[2] = tested on: THP-1; test: Antiinflammatory activity in human THP-1 monocytes assessed as decrease in IL-1beta production at 10 uM incubated for 24 hrs by ELISA coupled qRT-PCR analysis relative to control; type: functional; parameters: scale not given: the % may be the effect or the level left
[3] = tested on: THP-1; test: Antiinflammatory activity in human THP-1 monocytes assessed as decrease in IL-6 production at 10 uM incubated for 24 hrs by ELISA coupled qRT-PCR analysis relative to control; type: functional; parameters: scale not given: the % may be the effect or the level left
[4] = tested on: THP-1; test: Antiinflammatory activity in human THP-1 monocytes assessed as decrease in IFN-gamma production at 10 uM incubated for 24 hrs by ELISA coupled qRT-PCR analysis relative to control; type: functional; parameters: scale not given: the % may be the effect or the level left
[5] = tested on: THP-1; test: Antiinflammatory activity against LPS-activated human THP-1 monocytes assessed as decrease in TNF-alpha production at 10 uM incubated for 24 hrs by ELISA coupled qRT-PCR analysis; type: functional, cell-based
[6] = tested on: THP-1; test: Antiinflammatory activity against LPS-activated human THP-1 monocytes assessed as decrease in IFN-gamma production at 10 uM incubated for 24 hrs by ELISA coupled qRT-PCR analysis; type: functional, cell-based
[7] = tested on: THP-1; test: Antiinflammatory activity against LPS-activated human THP-1 monocytes assessed as decrease in IL-1beta production at 10 uM incubated for 24 hrs by ELISA coupled qRT-PCR analysis; type: functional, cell-based
[8] = tested on: THP-1; test: Antiinflammatory activity against LPS-activated human THP-1 monocytes assessed as decrease in IL-6 production at 10 uM incubated for 24 hrs by ELISA coupled qRT-PCR analysis; type: functional, cell-based
[9] = tested on: THP-1; test: Antiinflammatory activity against LPS-activated human THP-1 monocytes assessed as increase in IL-4 production at 10 uM incubated for 24 hrs by ELISA coupled qRT-PCR analysis; type: functional, cell-based
[10] = tested on: THP-1; test: Antiinflammatory activity in human THP-1 monocytes assessed as decrease in IL-6 production at 1 to 10 uM incubated for 24 hrs in the presence of JTE907 by ELISA coupled qRT-PCR analysis; type: functional, cell-based; conditions: dose 1-10 µM
[11] = tested on: THP-1; test: Antiinflammatory against LPS-activated human THP-1 monocytes assessed as decrease in TNF-alpha production at 1 to 10 uM incubated for 24 hrs in the presence of JTE907 by ELISA coupled qRT-PCR analysis; type: functional, cell-based; conditions: dose 1-10 µM
[12] = tested on: THP-1; test: Antiinflammatory against LPS-activated human THP-1 monocytes assessed as decrease in IFN-gamma production at 1 to 10 uM incubated for 24 hrs in the presence of JTE907 by ELISA coupled qRT-PCR analysis; type: functional, cell-based; conditions: dose 1-10 µM
[13] = tested on: THP-1; test: Antiinflammatory activity in PMA-differentiated human THP-1 macrophages assessed as increase in IL-4 production at 1 to 10 uM incubated for 24 hrs by ELISA coupled qRT-PCR analysis; type: functional, cell-based; conditions: dose 1-10 µM
[14] = tested on: THP-1; test: Antiinflammatory activity against LPS-activated PMA-differentiated human THP-1 macrophages assessed as increase in IL-4 production at 1 to 10 uM incubated for 24 hrs by ELISA coupled qRT-PCR analysis; type: functional, cell-based; conditions: dose 1-10 µM
[15] = tested on: THP-1; test: Antiinflammatory activity in PMA-differentiated human THP-1 macrophages assessed as decrease in IFN-gamma production at 1 to 10 uM incubated for 24 hrs in the presence of JTE907 by ELISA coupled qRT-PCR analysis; type: functional, cell-based; conditions: dose 1-10 µM
[16] = tested on: THP-1; test: Antiinflammatory activity in LPS-activated PMA-differentiated human THP-1 macrophages assessed as increase in IL-10 production at 1 to 10 uM incubated for 24 hrs in the presence of JTE907 by ELISA coupled qRT-PCR analysis; type: functional, cell-based; conditions: dose 1-10 µM
[17] = tested on: THP-1; test: Antiinflammatory activity against LPS-activated human THP-1 monocytes assessed as increase in IL-10 production at 10 uM incubated for 24 hrs by ELISA coupled qRT-PCR analysis; type: functional, cell-based
[18] = tested on: THP-1; test: Antiinflammatory activity in human THP-1 monocytes assessed as increase in IL-10 production at 10 uM incubated for 24 hrs in the presence of JTE907 by ELISA coupled qRT-PCR analysis; type: functional, cell-based
[19] = tested on: THP-1; test: Antiinflammatory against LPS-activated human THP-1 monocytes assessed as increase in IL-4 production at 10 uM incubated for 24 hrs in the presence of JTE907 by ELISA coupled qRT-PCR analysis; type: functional, cell-based
[20] = tested on: THP-1; test: Antiinflammatory activity in PMA-differentiated human THP-1 macrophages assessed as reduction in IL-6 production at 10 uM incubated for 24 hrs by ELISA coupled qRT-PCR analysis relative to control; type: functional; parameters: scale not given: the % may be the effect or the level left
[21] = tested on: THP-1; test: Antiinflammatory activity in PMA-differentiated human THP-1 macrophages assessed as increase in IL-10 production at 10 uM incubated for 24 hrs by ELISA coupled qRT-PCR analysis; type: functional, cell-based
[22] = tested on: THP-1; test: Antiinflammatory activity against LPS-activated PMA-differentiated human THP-1 macrophages assessed as decrease in IFN-gamma production at 10 uM incubated for 24 hrs by ELISA coupled qRT-PCR analysis relative to control; type: functional; parameters: scale not given: the % may be the effect or the level left
[23] = tested on: THP-1; test: Antiinflammatory activity in PMA-differentiated human THP-1 macrophages assessed as decrease in IL-1beta production at 10 uM incubated for 24 hrs in the presence of JTE907 by ELISA coupled qRT-PCR analysis; type: functional, cell-based
[24] = tested on: THP-1; test: Antiinflammatory activity in LPS-activated PMA-differentiated human THP-1 macrophages assessed as increase in IL-4 production at 10 uM incubated for 24 hrs in the presence of JTE907 by ELISA coupled qRT-PCR analysis; type: functional, cell-based
[25] = tested on: THP-1; test: Antiinflammatory activity in human THP-1 monocytes assessed as decrease in TNF-alpha production at 10 uM incubated for 24 hrs in the presence of N-(adamantan-1-yl)-4-(pentylamino)-[1,1'-biphenyl]-3-carboxamide by ELISA coupled qRT-PCR analysis; type: functional, cell-based
[26] = tested on: THP-1; test: Antiinflammatory activity against LPS-activated human THP-1 monocytes assessed as decrease in IFN-gamma production at 10 uM incubated for 24 hrs in the presence of N-(adamantan-1-yl)-4-(pentylamino)-[1,1'-biphenyl]-3-carboxamide by ELISA coupled qRT-PCR analysis; type: functional, cell-based
[27] = tested on: THP-1; test: Antiinflammatory activity in PMA-differentiated human THP-1 monocytes assessed as decrease in IFN-gamma production at 10 uM incubated for 24 hrs in the presence of N-(adamantan-1-yl)-4-(pentylamino)-[1,1'-biphenyl]-3-carboxamide by ELISA coupled qRT-PCR analysis; type: functional, cell-based
[28] = tested on: THP-1; test: Antiinflammatory activity against LPS-activated PMA-differentiated human THP-1 monocytes assessed as increase in IL-10 production at 10 uM incubated for 24 hrs in the presence of N-(adamantan-1-yl)-4-(pentylamino)-[1,1'-biphenyl]-3-carboxamide by ELISA coupled qRT-PCR analysis; type: functional, cell-based
[29] = tested on: THP-1; test: Antiinflammatory activity against LPS-activated PMA-differentiated human THP-1 monocytes assessed as decrease in IFN-gamma production at 10 uM incubated for 24 hrs in the presence of N-(adamantan-1-yl)-4-(pentylamino)-[1,1'-biphenyl]-3-carboxamide by ELISA coupled qRT-PCR analysis; type: functional, cell-based

Structure (SMILES)	Activity [1] [%]	Activity [2] [%]	Activity [3] [%]	Activity [4] [%]	Activity [5]	Activity [6]	Activity [7]	Activity [8]	Activity [9]	Activity [17]	also measured
CCCCCNc1ccccc1C(=O)NC12CC3CC(CC(C3)C1)C2	50	50	40	50	Active	Active	Active	Active	Active	Active	Activity [10]: inactive; Activity [11]: inactive; Activity [12]: inactive; Activity [13]: Active; Activity [14]: Active; Activity [15]: inactive; Activity [16]: inactive
O=C(NC1CCCCC1)c1cn(CCN2CCOCC2)c2cc(Cl)ccc2c1=O	60	60	60	40	Active	Active	Active	Active	Active	Active	Activity [18]: inactive; Activity [19]: inactive; Activity [20]: 50%; Activity [21]: Active; Activity [22]: 70%; Activity [23]: inactive; Activity [24]: inactive; Activity [25]: inactive; Activity [26]: inactive; Activity [27]: inactive; Activity [28]: inactive; Activity [29]: inactive
